Molecular target: T1, Bromodomain-containing protein 4 [368-440] (Homo sapiens, UniProt O60885)
T1 construct: 368-440
Test: BET BRD Assay
Description: 3x Complete Substrate plus Inhibitor Solution in Assay Medium (Opti-MEM I Reduced Serum Medium, no phenol red, and no serum) was prepared just before measuring BRET. This solution consisted of a 1:166 dilution of NanoBRET Nano-Glo Substrate plus a 1:500 dilution of Extracellular NanoLuc Inhibitor in Assay Medium. For a 96-well plate, 30 ul of NanoBRET Nano-Glo Substrate, 10 ul of Extracellular NanoLuc Inhibitor and 4,960 ul of Assay Medium were mixed to produce 5 ml of 3x Complete Substrate plus Inhibitor Solution, followed with gently mixing by inversion 5-10 times in a conical tube. (The final concentration of Extracellular NanoLuc Inhibitor in the 3x solution was 60 uM, for a working concentration of 20 uM. Use 3x Complete Substrate plus Inhibitor Solution within 2 hours. Discard any remaining solution). […] Donor emission wavelength (e.g., 450 nm) and acceptor emission wavelength (e.g., 610 nm) were measured by using the GloMax Discover System or other NanoBRET Assay-compatible luminometer (it is recommended measuring BRET within 10 minutes after adding NanoBRET Nano-Glo Substrate plus Extracellular NanoLuc Inhibitor Solution. However, BRET can be measured for up to 2 hours, but there will be some loss of luminescence signal). […]

Compound `Cc1cc(-c2ccc(-n3ccn(C)c3=O)c(Cl)c2)c(O)c(-c2cccc(N3CCN(C(C)(C)C)CC3)c2)n1` [US20240226096, Example I-2] has an IC50 of 10.2 nM.
